Source: patent publication US8324172B2, “G protein coupled receptor agonists and antagonists and methods of activating and inhibiting G protein coupled receptors using the same” (Tufts Medical Center, Inc., priority 2000, dated 2012)
Residue numbers refer to the chain shown, from its start. Entries after “also recorded” stand apart in the source; their conditions may differ. Where a SMILES comes first, the peptide text is derived from it. The star is where a group is joined. Palmitoyl = CCCCCCCCCCCCCCCC(=O)*

What was measured:
[1] = biological target: T1, somatostatin receptor (SSTR2) (Rattus norvegicus, UniProt P30680); assay: InsP formation in COS7 cells expressing SSTR2; assay type: cell-based; settings: relative to full response to 1 μM AGCKNFFWKTFTSC
T1 construct: expressed in transfected cells; host or cells: COS7, transient

[2] = biological target: T2, cholecystokinin B (CCKB) (Homo sapiens, UniProt P32239); assay: InsP formation in COS7 cells expressing CCKB; assay type: cell-based; settings: relative to 300 nM CCK-8
T2 construct: expressed in transfected cells; host or cells: COS7, transient
T2 sequence (P32239 1-447): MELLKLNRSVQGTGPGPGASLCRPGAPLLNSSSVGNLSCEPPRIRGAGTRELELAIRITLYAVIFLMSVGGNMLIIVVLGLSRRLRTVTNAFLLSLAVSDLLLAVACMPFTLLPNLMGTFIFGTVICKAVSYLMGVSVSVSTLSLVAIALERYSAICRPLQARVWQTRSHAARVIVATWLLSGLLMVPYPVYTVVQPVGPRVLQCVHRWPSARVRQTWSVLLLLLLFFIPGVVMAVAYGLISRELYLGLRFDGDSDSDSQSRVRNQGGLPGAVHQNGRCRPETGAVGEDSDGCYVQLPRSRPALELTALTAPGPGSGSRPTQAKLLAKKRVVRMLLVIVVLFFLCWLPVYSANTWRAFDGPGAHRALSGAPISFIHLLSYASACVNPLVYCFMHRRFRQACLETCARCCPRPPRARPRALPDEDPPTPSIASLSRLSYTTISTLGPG

[3] = tested on: delta377 PAR1; assay: InsP formation in COS7 cells expressing delta377 (C-tail deleted) PAR1 mutant; assay type: cell-based, human; settings: relative to wild type PAR1
[4] = biological target: T3, S309P PAR1 (Homo sapiens, UniProt P25116, S309P); assay: InsP formation in COS7 cells expressing S309P PAR1 mutant; assay type: cell-based; settings: relative to wild type PAR1
T3 construct: expressed in transfected cells; host or cells: COS7, transient
T3 sequence (P25116 22-425 S309P): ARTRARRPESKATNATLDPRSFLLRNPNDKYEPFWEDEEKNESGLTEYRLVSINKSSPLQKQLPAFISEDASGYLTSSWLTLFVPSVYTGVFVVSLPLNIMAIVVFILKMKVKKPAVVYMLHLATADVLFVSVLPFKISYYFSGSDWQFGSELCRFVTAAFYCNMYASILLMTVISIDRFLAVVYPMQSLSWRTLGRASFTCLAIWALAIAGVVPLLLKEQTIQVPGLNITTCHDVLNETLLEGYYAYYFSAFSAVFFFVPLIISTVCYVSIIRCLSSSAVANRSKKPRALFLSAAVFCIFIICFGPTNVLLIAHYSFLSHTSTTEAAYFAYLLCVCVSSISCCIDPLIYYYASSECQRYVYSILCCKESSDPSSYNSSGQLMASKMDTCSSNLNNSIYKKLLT

[5] = biological target: T4, PAR1 (Homo sapiens, UniProt P25116); assay: Inhibition of PAR1-dependent platelet Ca2+ signal; assay type: cell-based; settings: for inhibition of PAR1-dependent Ca2+ response: SFLLRN (or thrombin) after peptide pre-treatment
T4 construct: expressed in transfected cells
T4 sequence (P25116 22-425): T3 sequence (P25116 22-425 S309P) with P288S
Protocol: (§1) Platelet Ca2+ measurements were performed as in Example 1.
(§2) The integrated Ca^2+ response for the individual treatments are relative to the full Ca^2+ responses for each agonist (100%) recorded in the absence of P4pal-10 (top trace).

[6] = biological target: T5, PAR4 (Homo sapiens, UniProt Q96RI0); assay: Inhibition of PAR4-dependent platelet Ca2+ signal (AYPGKF); assay type: cell-based
T5 sequence (Q96RI0 18-385): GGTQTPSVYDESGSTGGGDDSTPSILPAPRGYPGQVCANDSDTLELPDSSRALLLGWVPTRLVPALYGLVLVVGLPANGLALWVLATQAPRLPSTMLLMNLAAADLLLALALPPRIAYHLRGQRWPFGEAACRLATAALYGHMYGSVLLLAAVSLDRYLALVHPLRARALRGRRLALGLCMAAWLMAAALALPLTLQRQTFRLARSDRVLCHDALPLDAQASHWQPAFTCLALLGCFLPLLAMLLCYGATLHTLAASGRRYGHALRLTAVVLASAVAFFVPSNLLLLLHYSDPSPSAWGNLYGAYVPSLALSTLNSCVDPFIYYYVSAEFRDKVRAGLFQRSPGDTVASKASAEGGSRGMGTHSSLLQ
Protocol: as §1, §2

[7] = tested on: platelets; assay: Platelet intracellular Ca2+, agonist activity of peptides
[8] = biological target: T5, PAR4; assay: Inhibition of AYPGKF-induced human platelet aggregation; assay type: cell-based
[9] = tested on: thrombin receptors on human platelets; assay: Inhibition of thrombin-induced human platelet aggregation; settings: 3 nM thrombin; LBS1-PE at 25 micromolar
[10] = 5 μM pepducin, SFLLRN followed by AYPGKF
[11] = 1.2-5 μM pepducin, AYPGKF first, then SFLLRN

Chain of delta377 PAR1 (P25116 42-376 limits assumed): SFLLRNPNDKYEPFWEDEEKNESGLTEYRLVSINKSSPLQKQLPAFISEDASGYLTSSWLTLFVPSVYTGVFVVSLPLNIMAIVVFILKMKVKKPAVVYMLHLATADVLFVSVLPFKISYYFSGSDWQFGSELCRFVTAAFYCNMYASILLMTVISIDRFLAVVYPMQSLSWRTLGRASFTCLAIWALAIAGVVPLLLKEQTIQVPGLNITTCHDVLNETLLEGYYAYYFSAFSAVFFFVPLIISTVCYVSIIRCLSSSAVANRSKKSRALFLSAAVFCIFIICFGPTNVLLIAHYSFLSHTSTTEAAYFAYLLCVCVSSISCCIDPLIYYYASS
T1 sequence (P30680 whole entry): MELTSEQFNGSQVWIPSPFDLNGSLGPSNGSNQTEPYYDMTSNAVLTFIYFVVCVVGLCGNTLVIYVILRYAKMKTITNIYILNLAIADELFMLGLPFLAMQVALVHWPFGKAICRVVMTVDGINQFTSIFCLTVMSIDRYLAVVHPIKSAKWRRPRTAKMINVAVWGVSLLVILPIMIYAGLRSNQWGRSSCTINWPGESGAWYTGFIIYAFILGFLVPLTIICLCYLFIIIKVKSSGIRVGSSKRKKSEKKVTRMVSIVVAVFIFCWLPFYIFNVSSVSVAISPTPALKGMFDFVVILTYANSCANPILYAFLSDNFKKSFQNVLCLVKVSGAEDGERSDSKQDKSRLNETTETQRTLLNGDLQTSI

CCCCCCCCCCCCCCCC(=O)N[C@@H](CCCCN)C(=O)N[C@H](C(=O)N[C@@H](CCCNC(=N)N)C(=O)N[C@@H](CO)C(=O)N[C@@H](CO)C(=O)NCC(=O)N[C@H](C(=O)N[C@@H](CCCNC(=N)N)C(=O)N[C@H](C(=O)NCC(=O)N[C@@H](CO)C(=O)N[C@@H](CO)C(=O)N[C@@H](CCCCN)C(=O)N[C@@H](CCCNC(=N)N)C(=O)N[C@@H](CCCCN)C(=O)N[C@@H](CCCCN)C(=O)N[C@@H](CO)C(=O)N[C@@H](CCC(=O)O)C(=O)N[C@@H](CCCCN)C(=O)N[C@@H](CCCCN)C(=O)N[C@H](C(=O)N[C@H](C(=O)N[C@@H](Cc1ccccc1)C(N)=O)[C@@H](C)O)C(C)C)C(C)C)[C@@H](C)CC)C(C)C [Pepducin S2pal-23F] (Palmitoyl-KVRSSGIRVGSSKRKKSEKKVTF-NH2)
Agonist Efficacy [1]: 15 ± 4%

CCCCCCCCCCCCCCCC(=O)N[C@@H](CO)C(=O)NCC(=O)N[C@@H](CO)C(=O)N[C@@H](CCCNC(=N)N)C(=O)N1CCC[C@H]1C(=O)N[C@H](C(=O)N[C@@H](CCC(N)=O)C(=O)N[C@@H](C)C(=O)N[C@@H](CCCCN)C(=O)N[C@@H](CC(C)C)C(=O)N[C@@H](CC(C)C)C(=O)N[C@@H](C)C(=O)N[C@@H](CCCCN)C(=O)N[C@@H](CCCCN)C(=O)N[C@@H](CCCNC(=N)N)C(=O)N[C@H](C(=O)N[C@H](C(=O)N[C@@H](CCCNC(=N)N)C(N)=O)C(C)C)C(C)C)[C@@H](C)O [Bpal-18] (Palmitoyl-SGSRPTQAKLLAKKRVVR-NH2)
Agonist Efficacy [2]: 12 ± 3%

SFLLRN
shift of potency on delta377 mutant [3]: ~30 fold | loss of efficacy on S309P mutant [4]: 3.3 fold | loss of potency on S309P mutant [4]: 28 fold

CCCCCCCCCCCCCCCC(=O)N[C@@H](Cc1c[nH]cn1)C(=O)N[C@H](C(=O)N[C@@H](CC(C)C)C(=O)N[C@@H](C)C(=O)N[C@@H](C)C(=O)N[C@@H](CO)C(=O)NCC(=O)N[C@@H](CCCNC(=N)N)C(=O)N[C@@H](CCCNC(=N)N)C(=O)N[C@@H](Cc1ccc(O)cc1)C(=O)NCC(=O)N[C@@H](Cc1c[nH]cn1)C(=O)N[C@@H](C)C(=O)N[C@@H](CC(C)C)C(=O)N[C@@H](CCCNC(=N)N)C(N)=O)[C@@H](C)O [Pepducin P4pal-15] (Palmitoyl-HTLAASGRRYGHALR-NH2)
inhibition of PAR1-dependent Ca2+ response [5]: without affecting SFLLRN | inhibition of PAR4-dependent Ca2+ response ([6]; 3 micromolar pepducin, 200 Micromolar AYPGKF): fully antagonize PAR4 signaling; also recorded: blocked AYPGKF | agonist activity, platelet intracellular Ca2+ [7]: had no agonist activity | IC50 [8]: 0.6 µM | inhibition of PAR4-dependent platelet aggregation ([8]; AYPGKF): effective inhibitor of platelet aggregation

CCCCCCCCCCCCCCCC(=O)N[C@@H](CO)C(=O)NCC(=O)N[C@@H](CO)C(=O)N[C@@H](CCCNC(=N)N)C(=O)N1CCC[C@H]1C(=O)N[C@H](C(=O)N[C@@H](CCC(N)=O)C(=O)N[C@@H](C)C(=O)N[C@@H](CCCCN)C(=O)N[C@@H](CC(C)C)C(=O)N[C@@H](CC(C)C)C(=O)N[C@@H](C)C(=O)N[C@@H](CCCCN)C(=O)N[C@@H](CCCCN)C(=O)N[C@@H](CCCNC(=N)N)C(=O)N[C@H](C(=O)N[C@H](C(=O)N[C@@H](Cc1ccccc1)C(N)=O)C(C)C)C(C)C)[C@@H](C)O [Bpal-18F] (Palmitoyl-SGSRPTQAKLLAKKRVVF-NH2)
Agonist Efficacy [2]: 13 ± 2%

CCCCCCCCCCCCCCCC(=O)N[C@@H](CO)C(=O)NCC(=O)N[C@@H](CCCNC(=N)N)C(=O)N[C@@H](CCCNC(=N)N)C(=O)N[C@@H](Cc1ccc(O)cc1)C(=O)NCC(=O)N[C@@H](Cc1c[nH]cn1)C(=O)N[C@@H](C)C(=O)N[C@@H](CC(C)C)C(=O)N[C@@H](CCCNC(=N)N)C(N)=O [Pepducin P4pal-10] (Palmitoyl-SGRRYGHALR-NH2)
inhibition of PAR1 Ca2+ response [5, 10]: 36% | attenuation of PAR1 Ca2+ signal [5, 11]: 17-67% | inhibition of PAR4 Ca2+ response [6, 10]: 97% | attenuation of PAR4 Ca2+ response [6, 11]: 50-80% | IC50 [8]: 0.5 to 1 µM

PAFISEDASGYL-C (PAFISEDASGYLC) [LBS1]
inhibition of PAR1-dependent Ca2+ response [5]: relatively poor antagonist | inhibition of PAR1-dependent Ca2+ response ([5]; listed as LBS-1): poor antagonist | inhibition of aggregation [9]: did not inhibit
